Assay results as given in PubChem BioAssay AID330 (DTP/NCI, 2004).
Several values for one entry are separate records, joined by “and”; a condition that tells them apart may be missing. Equal values may be shown once. Toxic doses and inconclusive results are not listed. How the source made its calls: active means survival T/C of 150% or more; inactive means T/C below 125% in these data.

Test system: P388 leukemia ip, CD2F1 mice, survival T/C
Assay: NCI In Vivo Anticancer Drug Screen. Data for tumor model P388 Leukemia (intraperitoneal) in CD2F1 (CDF1) mice
Settings: endpoint: median survival time, higher = longer survival
How it was run: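 Mice carrying the transplanted tumor received test compound or vehicle. Survival was recorded in each group, and the value is the treated-group measurement divided by that of the vehicle-treated control group.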

[1] = dose: 50.0 mg/kg/injection, schedule: Q01DX005 (ip), vehicle: Klucel (hydroxypropylcellulose) (HPC)
[2] = dose: 100.0 mg/kg/injection, schedule: Q01DX005 (ip), vehicle: Klucel (hydroxypropylcellulose) (HPC)
[3] = dose: 50.0 mg/kg/injection, schedule: Q01DX009 (ip), vehicle: saline with Tween-80
[4] = dose: 25.0 mg/kg/injection, schedule: Q04DX003 (ip), vehicle: Klucel (hydroxypropylcellulose) (HPC)
[5] = dose: 50.0 mg/kg/injection, schedule: Q04DX003 (ip), vehicle: Klucel (hydroxypropylcellulose) (HPC)
[6] = dose: 6.25 mg/kg/injection, schedule: Q01DX009 (ip), vehicle: saline
[7] = dose: 12.5 mg/kg/injection, schedule: Q01DX009 (ip), vehicle: saline
[8] = dose: 50.0 mg/kg/injection, schedule: Q01DX009 (ip), vehicle: Klucel (hydroxypropylcellulose) (HPC)
[9] = dose: 100.0 mg/kg/injection, schedule: Q01DX009 (ip), vehicle: Klucel (hydroxypropylcellulose) (HPC)
[10] = dose: 200.0 mg/kg/injection, schedule: Q01DX009 (ip), vehicle: Klucel (hydroxypropylcellulose) (HPC)
[11] = dose: 60.0 mg/kg/injection, schedule: Q01DX005 (ip), vehicle: saline with Tween-80
[12] = dose: 120.0 mg/kg/injection, schedule: Q01DX005 (ip), vehicle: saline with Tween-80
[13] = dose: 240.0 mg/kg/injection, schedule: Q01DX005 (ip), vehicle: saline with Tween-80
[14] = dose: 100.0 mg/kg/injection, schedule: Q01DX009 (ip), vehicle: saline with Tween-80
[15] = dose: 200.0 mg/kg/injection, schedule: Q01DX009 (ip), vehicle: saline with Tween-80
[16] = dose: 200.0 mg/kg/injection, schedule: Q01DX005 (ip), vehicle: Klucel (hydroxypropylcellulose) (HPC)
[17] = dose: 50.0 mg/kg/injection, schedule: Q01DX005 (ip), vehicle: saline with Tween-80
[18] = dose: 100.0 mg/kg/injection, schedule: Q01DX005 (ip), vehicle: saline with Tween-80
[19] = dose: 200.0 mg/kg/injection, schedule: Q01DX005 (ip), vehicle: saline with Tween-80
[20] = dose: 25.0 mg/kg/injection, schedule: Q01DX005 (ip), vehicle: Klucel (hydroxypropylcellulose) (HPC)

Measured: T/C

CN(C)c1ccc2nc3c(C(=O)O)cc(=O)c(O)c-3oc2c1
inactive: [1] 103 % of control | [2] 108 % of control

CCOC(=O)CN(CCN(CC)CC)c1ccc([N+](=O)[O-])cc1[N+](=O)[O-]
inactive: dose: 100.0 mg/kg/injection, schedule: Q01DX001 (ip), vehicle: other 95 % of control | dose: 200.0 mg/kg/injection, schedule: Q01DX001 (ip), vehicle: other 100 % of control

C=CCNC(=S)N/N=C/c1nccc(-c2ccccc2)c1C
inactive: dose: 25.0 mg/kg/injection, schedule: Q01DX009 (ip), vehicle: saline with Tween-80 112 % of control | [3] 86 % of control

O=C1OC(c2ccccc2)(c2ccccc2)c2cc3c(cc21)C(c1ccccc1)(c1ccccc1)OC3=O
inactive: dose: 100.0 mg/kg/injection, schedule: Q01DX001 (ip), vehicle: saline 93 % of control | dose: 200.0 mg/kg/injection, schedule: Q01DX001 (ip), vehicle: saline 93 % of control | dose: 400.0 mg/kg/injection, schedule: Q01DX001 (ip), vehicle: saline 92 % of control

Oc1ccccc1/C=N/NC(=S)NC1CC2C=CC1C2 (centres undefined)
inactive: dose: 12.5 mg/kg/injection, schedule: Q01DX009 (ip), vehicle: olive oil, sesame oil, peanut oil 100 % of control | dose: 25.0 mg/kg/injection, schedule: Q01DX009 (ip), vehicle: olive oil, sesame oil, peanut oil 102 % of control | dose: 50.0 mg/kg/injection, schedule: Q01DX009 (ip), vehicle: olive oil, sesame oil, peanut oil 97 % of control | dose: 100.0 mg/kg/injection, schedule: Q01DX009 (ip), vehicle: olive oil, sesame oil, peanut oil 97 % of control | dose: 200.0 mg/kg/injection, schedule: Q01DX009 (ip), vehicle: olive oil, sesame oil, peanut oil 102 % of control | dose: 400.0 mg/kg/injection, schedule: Q01DX009 (ip), vehicle: olive oil, sesame oil, peanut oil 97 % of control

O=C(O)CSc1cc(Cl)ccc1Cl
inactive: dose: 12.5 mg/kg/injection, schedule: Q04DX003 (ip), vehicle: Klucel (hydroxypropylcellulose) (HPC) 102 % of control | [4] 100 % of control | [5] 102 % of control | dose: 100.0 mg/kg/injection, schedule: Q04DX003 (ip), vehicle: Klucel (hydroxypropylcellulose) (HPC) 103 % of control

Cc1cccc(-n2c(C)nc3[nH]cc(C)c3c2=N)c1
inactive: [1] 99 % of control | [2] 105 % of control

OC(c1cc(F)c(F)c(F)c1F)(C(F)(F)F)C(F)(F)F
inactive: dose: 100.0 mg/kg/injection, schedule: Q04DX003 (ip), vehicle: suspension in saline 98 % of control | dose: 200.0 mg/kg/injection, schedule: Q04DX003 (ip), vehicle: suspension in saline 104 % of control | dose: 400.0 mg/kg/injection, schedule: Q04DX003 (ip), vehicle: suspension in saline 101 % of control

O=C(O)CS(=O)(=O)Cc1ccc(Cl)cc1Cl
inactive: dose: 60.0 mg/kg/injection, schedule: Q01DX005 (ip), vehicle: suspension in saline 103 % of control | dose: 120.0 mg/kg/injection, schedule: Q01DX005 (ip), vehicle: suspension in saline 112 % of control | dose: 240.0 mg/kg/injection, schedule: Q01DX005 (ip), vehicle: suspension in saline 96 % of control

C[CH2][Sn]([Br])([CH2]C)[c]1c(CN(C)C)cccc1CN(C)C
inactive: dose: 3.12 mg/kg/injection, schedule: Q01DX009 (ip), vehicle: saline 99 % of control and 100 % of control | [6] 104 % of control and 106 % of control and 95 % of control | [7] 100 % of control and 95 % of control | dose: 25.0 mg/kg/injection, schedule: Q01DX009 (ip), vehicle: saline 104 % of control and 95 % of control

CC(C)(S)C(N)C(=O)O (centres undefined)
inactive: [8] 98 % of control | [9] 105 % of control | [10] 94 % of control

CC1OCN2CCCCC12 (centres undefined)
inactive: dose: 25.0 mg/kg/injection, schedule: Q01DX005 (ip), vehicle: saline 107 % of control | dose: 50.0 mg/kg/injection, schedule: Q01DX005 (ip), vehicle: saline 118 % of control

CC(C)(Sc1ccc(Cl)cc1)C(=O)OCCN1CCCCC1
inactive: [11] 91 % of control | [12] 92 % of control | [13] 92 % of control

CCC12Nc3ccccc3C(CC)(C1=O)C(c1ccccc1)=C2c1ccccc1 (centres undefined)
inactive: [8] 115 % of control | [9] 106 % of control | [10] 115 % of control

CCCCCCC(=O)/C=C/c1cccc(OCOCC)c1
inactive: [3] 111 % of control and 113 % of control and 122 % of control | [14] 115 % of control and 122 % of control | [15] 108 % of control and 119 % of control

O=C([OH2+])C[N]1C(=O)C[NH][Ga]1[Cl].O=C([OH2+])C[N]1C(=O)C[NH][Ga]1[Cl]
inactive: [1] 108 % of control | [2] 100 % of control | [16] 98 % of control

CCCCCCCCCCCCCCCCCC[N+](C)(C)C (tested in a mixture with another compound)
inactive: dose: 1.5 mg/kg/injection, schedule: Q01DX009 (ip), vehicle: saline with Tween-80 90 % of control | dose: 3.0 mg/kg/injection, schedule: Q01DX009 (ip), vehicle: saline with Tween-80 113 % of control | [6] 109 % of control | [7] 113 % of control

CC(=O)[OH+]c1c(I)cc(I)cc1C(=O)[O-].CC(=O)[OH+]c1c(I)cc(I)cc1C(=O)[O-].[Cu+2]
inactive: dose: 15.0 mg/kg/injection, schedule: Q01DX005 (ip), vehicle: saline 106 % of control | dose: 30.0 mg/kg/injection, schedule: Q01DX005 (ip), vehicle: saline 92 % of control | dose: 60.0 mg/kg/injection, schedule: Q01DX005 (ip), vehicle: saline 106 % of control and 109 % of control

Cc1c(C2Nc3ccccc3C2C)[nH]c2ccccc12 (centres undefined)
inactive: [17] 104 % of control | [18] 100 % of control | [19] 103 % of control

O=C(CC1(O)C(=O)Nc2ccccc21)c1ccc([N+](=O)[O-])cc1 (centres undefined)
inactive: [11] 102 % of control | [12] 95 % of control | [13] 100 % of control

O=C1N(Cl)C2(c3ccccc3)N(Cl)C(=O)N(Cl)C2(c2ccccc2)N1Cl (centres undefined)
inactive: [4] 103 % of control | [5] 110 % of control

COc1ccccc1C1(O)c2ccccc2C(=O)c2ccccc21
inactive: [1] 101 % of control | [2] 99 % of control | [16] 103 % of control

COC(=O)C(F)C(N)C(=O)O (centres undefined)
inactive: dose: 12.5 mg/kg/injection, schedule: Q04DX003 (ip), vehicle: saline with Tween-80 100 % of control | dose: 25.0 mg/kg/injection, schedule: Q04DX003 (ip), vehicle: saline with Tween-80 101 % of control | dose: 50.0 mg/kg/injection, schedule: Q04DX003 (ip), vehicle: saline with Tween-80 99 % of control | dose: 200.0 mg/kg/injection, schedule: Q04DX003 (ip), vehicle: saline 103 % of control | dose: 400.0 mg/kg/injection, schedule: Q04DX003 (ip), vehicle: saline 90 % of control

O=C1C2CC34CCCN5CC1C1(c6ccccc6NC21CC3)C54 (centres undefined)
inactive: dose: 12.5 mg/kg/injection, schedule: Q01DX005 (ip), vehicle: Klucel (hydroxypropylcellulose) (HPC) 103 % of control | [20] 98 % of control | [1] 103 % of control

C/C=C(\CCNCCCC)[Si](C)(C)C
inactive: dose: 100.0 mg/kg/injection, schedule: Q04DX002 (ip), vehicle: saline 104 % of control | dose: 200.0 mg/kg/injection, schedule: Q04DX002 (ip), vehicle: saline 101 % of control

COc1cc(N=Nc2ccc(N=Nc3ccc4cc(S(=O)(=O)O)cc(S(=O)(=O)O)c4c3)c(C)c2)c(C)cc1NC(=O)c1ccc(NC(=O)c2ccc(N)cc2)cc1
inactive: [20] 103 % of control and 108 % of control | [1] 107 % of control and 111 % of control and 117 % of control | [2] 103 % of control and 116 % of control | [16] 107 % of control and 112 % of control and 97 % of control

O=C1Nc2ccccc2C12OCCS2 (centres undefined)
inactive: [11] 91 % of control | [12] 98 % of control | [13] 92 % of control

Cc1nn(C(=S)S)c(C)c1N=Nc1ccc(Cl)cc1Cl
inactive: [17] 100 % of control | [18] 96 % of control | [19] 102 % of control

O=C(c1ccc2c(c1)OCO2)N1OC2C=CC1CC2 (centres undefined)
inactive: [3] 98 % of control | [14] 96 % of control | [15] 98 % of control
